Reference: patent US20030232860A1, “Medicine comprising dicyanopyridine derivative” (priority 2000, published 2003)
Counter-ions that a name gives are not always drawn.

Assays:
[1] = test system: rat's removed bladder specimen; experiment: Inhibition of the contraction of rat's removed bladder specimen (15 mM K+-induced contraction, organ bath); conditions: SD male rat bladder strips, dose giving 50% inhibition of contraction area
Source text: Since the inhibitory action is blocked by a known maxi-K channel blocker charybdotoxin or iberiotoxin, it is confirmed that the effect of the compounds of the invention is based on the maxi-K channel opening effect. Thus, the pharmacological effect of the compounds of the invention was confirmed according to the following method.
<Inhibitory Effect in Construction of the Rat's Removed Bladder Specimen>
In this experiment, SD-family male rats (9-13 weeks of age) were used. The rats were killed by bleeding under ether anesthesia, and the bladders were removed. The removed bladders were immediately washed in a Kiebs-Henseleit solution (NaCl 118.4, KCl 4.7, KH2PO4 1.2, MgSO4 1.2, CaCl2 2.5, NaHCO3 25.0, glucose 11.1 [mM], aeration with 95% O2/5% CO2 mixed gas) kept at 37° C., and prepared into rectangular specimens of about 10 mm long and about 2 mm width on a Petri dish filled with the Klebs-Henseleit solution. The respective specimens were ligated at the both ends with a cotton string via a wire hook, and the one end was fixed to an FD pick-up and the other hung down vertically in an organ bath filled with the Klebs-Henseleit solution. After completion of the operation, 1.0 g of static tensile stress was given to the respective slices, which were then allowed to stand for 1.5-2 hours to stabilize. Then, a KCl solution was added to the organ bath so that the final K^+ ion concentration become 15 mM to induce the contraction. Thereafter, the specimens were further allowed to stand for about 1-2 hours to stabilize, and the test was started. The contraction of the smooth muscle was measured isometrically through the FD pick-up, and the output signal was amplified through a strain stress amplifier to continuously record a chart on a pen recorder. At the same time, the respective contraction wave forms to be analyzed were recorded on a personal computer as magnetic data through an analogue/digital signal converter, and the under-area of the contraction was calculated by analytical software. The contraction 5 minutes immediately after the start of the test was regarded as the value before administration of the drug to be tested (100% reference value). The drug to be tested was added into the bath at intervals of 30 minutes, and the contraction for 5 minutes, respectively 25 minutes after the administration, was analyzed. The drug to be tested was administered at a common ratio of 3 or 10 accumulatively. The effect of the drug to be tested was represented by the dose by which 50% inhibition was attained to the value before the administration (100% reference value). Additionally, the wave form of contraction at the highest dose of the drug was recorded, and then a maxi-K channel selective blocker, charybdotoxin or iberiotoxin, was administered so that the final concentration in the organ bath became 100 nM. Thus, the effect of the drug was observed whether it was blocked or not.

[2] = test system: rhythmic bladder contraction in rats under urethane anesthesia; experiment: Rhythmic contraction of the bladder in rats under urethane anesthesia; type: in vivo, rat; conditions: urethane-anesthetized SD female rats, i.d.; for inhibition in vivo at 10 mg/kg: Rattus norvegicus, intraduodenal, up to 2 hours, read-out: Inhibition of frequency of the bladder contraction max % inhibition; for Frequency of Bladder Contraction Retention time of 50% Inhibition: 10 mg/kg
Source text: <Effect on the Rhythmic Contraction of the Bladder in Rats Under Urethane Anesthesia>
SD-Family female rats (about 300 g) were used. A catheter was inserted into the bladder through the external urethral orifice under urethane anesthesia and spontaneous breathing. The other end was connected to a pressure transducer and an infusion pump through a three-way cock. On the other hand, another catheter for measuring blood pressure was inserted into the right common carotid artery. Physiological saline warmed at about 38° C. was injected in the bladder at a rate of 4.2 ml/hr until rhythmical bladder contraction was induced. Change of the internal pressure in the bladder was continuously recorded on a recorder. After the rhythmical bladder contraction was stabilized, a test compound suspended in 0.5% methylcellulose aqueous solution was administered through a catheter which had been attached to the duodenum. Thus, frequency of the bladder contraction (every 10 minutes), force of bladder contraction and average blood pressure were observed as evaluation items up to 2 hours after administration of the test compound.

[3] = test system: rhythmic vesical contraction in an anesthetized rat; conditions: cited from earlier work
[4] = test system: murine removed bladder smooth muscle; conditions: cited from earlier work

Row | SMILES | melting point | IC50 [1] | inhibition in vivo at 10 mg/kg [2] | Frequency of Bladder Contraction Retention time of 50% Inhibition [2] | Rhythmic vesical contraction [3] | Relaxant effect for the murine removed bladder smooth muscle [4]
1 | COc1nc(N)c(C#N)c(-c2ccccc2F)c1C#N [Example 3, 2-amino-6-methoxy-4-(2-fluorophenyl)pyridine-3,5-dicarbonitril] | 240 to 241 °C | 230 nM | 97% | 39 min |  | 
2 | COc1nc(N)c(C#N)c(C2CCCCO2)c1C#N (stereo not shown) [Example 6, 2-amino-4-(2-tetrahydropyranyl)-6-methoxypyridine-3,5-dicarbonitrile] | 134 to 135 °C | 1300 nM | 65% | 39 min |  | 
3 | C#CCOc1nc(N)c(C#N)c(-c2ccccc2F)c1C#N [Example 11, 2-amino-4-(2-fluorophenyl)-6-(prop-2-yn-1-yloxy)pyridine-3,5-dicarbonitrile] | 205 to 206 °C | 410 nM | 87% | 27 min |  | 
4 | N#Cc1c(N)nc(OCC(F)F)c(C#N)c1-c1ccccc1F [Example 12, 2-amino-6-(2,2-difluoroethoxy)-4-(2-fluorophenyl)pyridine-3,5-dicarbonitrile] | 219 to 220 °C | 410 nM | 77% | 31 min |  | 
5 | N#Cc1c(N)nc(OCCOC(=O)[C@@H](N)Cc2ccccc2)c(C#N)c1-c1ccccc1 [Example 15, 2-[(2-amino-3,5-dicyano-4-phenylpyridin-6-yl)oxy]ethyl (S)-2-amino-3-phenylpropanoate monohydrochloride monohydrate] |  | 2800 nM | 89% | 36 min |  | 
6 | COc1nc(N)c(C#N)c(-c2ccc(N)cc2)c1C#N.Cl.O [Example 20, 2-amino-(4-aminophenyl)-6-methoxypyridine-3,5-dicarbonitrile monohydrochloride monohydrate] |  | 110 nM | 86% | 40 min |  | 
7 | COc1nc(NC(C)=O)c(C#N)c(-c2ccccc2F)c1C#N [Example 58, N-[3,5-dicyano-4-(2-fluorophenyl)-6-methoxypyridin-2-yl]acetamide] | 192 to 193 °C | 1400 nM | 93% | 46 min |  | 
8 | COc1nc(N)c(C#N)c(CC2CCCCC2)c1C#N [Example 150, 2-amino-4-cyclohexylmethyl-6-methoxypyridine-3,5-dicarbonitrile] | 139 to 140 °C | 1300 nM | 81% | 30 min |  | 
9 | COc1nc(N)c(C#N)c(Cc2ccccc2)c1C#N [Example 151, 2-amino-4-benzyl-6-methoxypyridine-3,5-dicarbonitrile] | 215 to 216 °C | 1000 nM | 71% | 26 min |  | 
10 | Cc1c(-c2ccccc2F)[nH]c(N)c1C#N [NS-8] |  | 1100 nM |  |  | makes rhythmic vesical contraction subsided | exhibits a relaxant effect
